Where a name gives a salt, the structure may show the parent alone. Read-outs that look alike come from different tables or passages of the source. Blank lines part the entries; values can stand above or below the compound they belong to.
What was measured:
[1] = test system: MCL-1, BCL2L10, survivin and cPARP in MOLM-13 cells; assay: Western blot analysis of anti-apoptotic protein expression, MOLM-13; format: cell-based, human; conditions: MOLM-13, 24-hour treatment; gilteritinib 30 nM, AraC 100 nM, IDR 3 nM, Aza 1000 nM
Experimental: Cell lysates were prepared in radioimmunoprecipitation assay buffer (Thermo Fisher Scientific Inc., Rockford, IL) supplemented with phosphatase (Thermo Fisher Scientific Inc.) and protease inhibitors (Merck, Billerica, MA), electrophoresed on 4%–15% gels, and subsequently transferred to polyvinylidene difluoride membranes. The membranes were blocked using Blocking One (Nacalai Tesque Inc., Kyoto, Japan) for 1 hour and then incubated overnight with primary antibodies to MCL-1, BCL210, cPARP (all from Cell Signaling Technology, Danvers, MA, USA), survivin (R&D Systems, Inc., Minneapolis, MN), and α-actin (MilliporeSigma, Burlington, MA). The membranes were washed with TBS Tween-20 (TBS-T) buffer and incubated with appropriate horseradish peroxidase-linked secondary antibodies (Cell Signaling Technology Japan K.K.) for 1 hour at room temperature. After washing the membranes in TBS-T buffer, enhanced chemiluminescence Western Blotting Detection Reagent ECL-prime (GE Healthcare, Fairfield, CT) was applied. Signals were detected with a charge-coupled device camera (ImageQuant LAS4000; GE Healthcare); signal intensity was quantified using ImageQuant™ TL software (GE Healthcare).

[2] = Pharmacokinetic assays (plasma and tumor) in nude mice xenografted with MV4-11 cells; format: in vivo, mouse; conditions: for Cmax / Tmax / AUC / half-life / clearance / Vd: nude, mouse; for AUC: read-out: AUC24; for concentration in tumor fraction versus plasma fraction: xenografted mice; for clearance: read-out: CLtot (converted); for Vd: read-out: Vss
Experimental: Plasma samples were prepared by centrifugation (n=3 per group; one sample in the combination group was excluded due to improper handling). […] These assays were conducted by Astellas Research Technologies Co., Ltd. under the guidance of Analysis & Pharmacokinetics Research Laboratories, Astellas Pharma, Inc., or by Nemoto Science Co., Ltd. (Ibaraki, Japan). […] Body weight and tumor assessments obtained on with MV4-11 cells received one of the following Day −1 were designated as Day 0 (baseline) measurements. combination treatments: 1. […] The percent tumor regression was calculated using the formula: […]

[3] = test system: MOLM-13 cells; assay: Annexin-V staining (apoptosis), MOLM-13; format: cell-based, human; conditions: single agent: IDR 3 nM, AraC 100 nM or Aza 1000 nM, 48 hours
Experimental: MV4-11 cells were seeded in 12-well plates at a concentration of 2 × 10^5 cells/well and cultured overnight. […] MOLM-13 cells were seeded in 12-well plates at a concentration of 1 × 10^5 cells/well and cultured overnight.
Cells were harvested and incubated with Guava® Nexin Reagent (Merck Millipore Corporation, Billerica, MA). Annexin-V-positive cells were assessed using a Guava® PCA microcytometer (Merck Millipore Corporation); the percentage of annexin-V-positive cells (2000 cells per sample) was analyzed using CytoSoft™ software (Merck Millipore Corporation). Mean percentages of annexin-V-positive cells were derived from three independent experiments.

[4] = plasma, ip, 50 mg/kg, AraC in plasma, gilteritinib 3, AraC 50, IDR 0.5 mg/kg
[5] = plasma, ip, AraC in plasma, gilteritinib 0, AraC 50, IDR 0.5 mg/kg
[6] = tumor, ip, 50 mg/kg, AraC in tumor, gilteritinib 3, AraC 50, IDR 0.5 mg/kg
[7] = tumor, ip, AraC in tumor, gilteritinib 0, AraC 50, IDR 0.5 mg/kg
[8] = idarubicin in tumor, with versus without gilteritinib
[9] = tumor, iv, 0.5 mg/kg, idarubicin in tumor, gilteritinib 0, AraC 50, IDR 0.5 mg/kg
[10] = tumor, iv, idarubicin in tumor, gilteritinib 3, AraC 50, IDR 0.5 mg/kg

- AUC24 ratio ([2]; AraC in plasma, with versus without gilteritinib): 0.32
- AUC24 ([2]; AraC in tumor, gilteritinib 0, AraC 50, IDR 0.5 mg/kg): 7968 ng·h/g
- AUC24 ratio ([2]; AraC in tumor, with versus without gilteritinib): 1.13
- Cmax [2, 4]: 18000 ng/mL
- Tmax [2, 4]: 0.083 h
- AUC [2, 4]: 9960 ng·h/mL
- Cmax [2, 5]: 28700 ng/mL
- Tmax [2, 5]: 0.25 h
- AUC [2, 5]: 31600 ng·h/mL
- Cmax [2, 6]: 1060 ng/g
- Tmax [2, 6]: 2 h
- Cmax [2, 7]: 904 ng/g
- Tmax [2, 7]: 2 h
- concentration in tumor fraction versus plasma fraction [2]: higher in the plasma fraction
SMILES: Nc1ccn([C@@H]2O[C@H](CO)[C@@H](O)[C@@H]2O)c(=O)n1 [AraC, Cytarabine]
- expression of MCL-1, BCL2L10, and survivin [1]: little effect
- mean percentage of annexin V-positive cells [3]: 21.9%

- AUC24 ratio ([2]; idarubicin in plasma, with versus without gilteritinib): 1.23
- AUC24 ([2]; idarubicin in tumor, gilteritinib 0, AraC 50, IDR 0.5 mg/kg): 4491 ng·h/g
- AUC24 ([2]; idarubicin in tumor, gilteritinib 3, AraC 50, IDR 0.5 mg/kg): 4855 ng·h/g
- AUC24 ratio [2, 8]: 1.08
- Cmax ratio [2, 8]: 1.11
- half-life ([2]; plasma, iv): 2.24 h
- half-life ([2]; plasma, iv, 0.5 mg/kg): 1.49 h
- AUC ([2]; plasma, iv, 0.5 mg/kg, idarubicin in plasma, gilteritinib 0, AraC 50, IDR 0.5 mg/kg): 63.3 ng·h/mL
- clearance ([2]; plasma, iv, 0.5 mg/kg): 217 mL/min/kg
- Vd ([2]; plasma, iv, 0.5 mg/kg): 26.7 L/kg
- AUC ([2]; plasma, iv, idarubicin in plasma, gilteritinib 3, AraC 50, IDR 0.5 mg/kg): 77.9 ng·h/mL
- clearance ([2]; plasma, iv): 172 mL/min/kg
- Vd ([2]; plasma, iv): 31.5 L/kg
- Cmax [2, 9]: 204 ng/g
- Tmax [2, 9]: 4 h
- Cmax [2, 10]: 226 ng/g
- Tmax [2, 10]: 24 h
- concentration in tumor fraction versus plasma fraction [2]: higher in the tumor fraction
SMILES: CC(=O)[C@]1(O)Cc2c(O)c3c(c(O)c2[C@@H](O[C@H]2C[C@H](N)[C@H](O)[C@H](C)O2)C1)C(=O)c1ccccc1C3=O [IDR, Idarubicin hydrochloride]
- expression of MCL-1, BCL2L10, and survivin [1]: little effect
- mean percentage of annexin V-positive cells [3]: 36.6%

Source: article PMC6493465 (Oncotarget, 2019)
